The values that follow are results of earlier work, collected in article PMC3066546, “Development of modified nucleosides that have supremely high anti-HIV activity and low toxicity and prevent the emergence of resistant HIV mutants” (Proceedings of the Japan Academy. Series B, Physical and …, 2011).

Read-outs that look alike come from different tables or passages of the source. Bounds are passed on as bounds.

By CC50 is commonly meant the concentration at which the toxic effect on the cells reaches its halfway point.

Data set [1] deals with M184V drug-resistant HIV. On the set-up: method as in PMID 11087576, PMID 11577734, PMID 15200030. As to conditions: MAGI assay.
Data set [2] concerns the target Y181C (non-nucleoside reverse transcriptase inhibitor-resistant). Also on record: method as in PMID 11087576, PMID 11577734, PMID 15200030. As to conditions: MAGI assay.
Data set [3] deals with L74V drug-resistant HIV. Also on record: method as in PMID 11087576, PMID 11577734, PMID 15200030. As to conditions: MAGI assay.
For data set [4], the system named is MT-4 cells.
The test system of data set [5] is MDR (multidrug-resistant HIV). As to conditions: MAGI assay.
Data set [6] has as its system 41/215 drug-resistant HIV. Also on record: method as in PMID 11087576, PMID 11577734, PMID 15200030. To be noted: MAGI assay.
Data set [7] has as its system 41/69/ 125/SG drug-resistant HIV. Also on record: method as in PMID 11087576, PMID 11577734, PMID 15200030. As to conditions: MAGI assay.
In data set [8] the test system is HXB2 (wild type HIV). Also on record: method as in PMID 11087576, PMID 11577734, PMID 15200030. As to conditions: MAGI assay.
The test system of data set [9] is M184I drug-resistant HIV. Also on record: method as in PMID 11087576, PMID 11577734, PMID 15200030. As to conditions: MAGI assay.
For data set [10], the system named is Hela cells.
Data set [11] has as its system HIV-1LAI. To be noted: MTT assay, MT-4 cells. (In general: Tetrazolium assays rely on reduction of a dye to a coloured formazan, in cell work by metabolically active cells.)
Data set [12] deals with KH65R drug-resistant HIV. Also on record: method as in PMID 11087576, PMID 11577734, PMID 15200030. To be noted: MAGI assay.
Data set [13] has as its system HIV-1MDR. Also on record: method as in PMID 18487070. As to conditions: Table 7; read-out: Anti-HIV activity (MAGI assay, µg) HIV-1MDR.
In data set [14] the test system is HIV-1wild. Also on record: method as in PMID 18487070. To be noted: Table 7; read-out: Anti-HIV activity (MAGI assay, µg) HIV-1wild.
Data set [15] deals with HIV-1M184V. On the set-up: method as in PMID 18487070. As to conditions: Table 7; read-out: Anti-HIV activity (MAGI assay, µg) HIV-1M184V.
The test system of data set [16] is ICR mice. As to conditions: for Mortality (%): six-week-old ICR male mice.
For data set [17] the following is noted: cytotoxic concentration, Table 1.
Data set [18] concerns HIV. On the set-up: method as in PMID 7764216. As to conditions: Table 1; for EC50: anti-HIV.

In the case of `C#C[C@]1(CO)O[C@@H](n2ccc(N)nc2=O)[C@@H](O)[C@@H]1O` [4′EaraC, 4′-C-ethynyl D-arabino-furanosyl cytosine], the EC50 is 710 nM in data set [1]; 16 nM in [2]; 26 nM in data set [3]; 7.9 nM in data set [5]; 26 nM in [6]; 170 nM in data set [7]. For the same compound, the EC50 was 7.1 nM in data set [8], 480 nM in data set [9], 43 nM in data set [11] (Table 2) and 15 nM in [12]. The CC50 is 2000 nM in data set [4] (Table 2) and more than 200000 nM in data set [10] (Table 4, Hela cells).

Turning to `C#C[C@]1(CO)O[C@@H](n2cnc3c(N)nc(Cl)nc32)C[C@@H]1O` [4′Ed2ClA, 2′-deoxy-4′-C-ethynyl-2-chloroadenosine], the EC50 in [13] was 8.4 nM; in data set [14], 1.9 nM; in data set [15], 10 nM.

For the compound `C#C[C@@]1(CO)C=C[C@H](n2cnc3c(N)nc(F)nc32)O1` [4′Ed42FA, 2′,3′-didehydrodideoxy-4′-C-ethynyl-2-fluoroadenosine], the results for the EC50 in data set [13], in [14] and in [15] were 150 nM, 800 nM and 1800 nM, respectively.

For `C#C[C@]1(CO)O[C@@H](n2ccc(N)nc2=O)C[C@@H]1O` [4′EdC, 4′-C-ethynyl-2′-deoxycytidine], the EC50 in data set [1] was 2.4 nM; in data set [2] it was 2.1 nM; in data set [3] it was 1.3 nM; in [6], 6 nM; in data set [7], 15 nM; in data set [8], 1.2 nM. In addition, the EC50 in data set [9] was 2.6 nM; in [11] (Table 2, listed as 4′-C-ethynyl-2′-deoxycytidine), 4.8 nM; in [12], 0.8 nM.

In the case of `C#C[C@]1(CO)O[C@@H](n2cnc3c(O)ncnc32)C[C@@H]1O` [4′EdI, 2′-deoxy-4′-C-ethynylinosine], the “Mortality (%)” value is listed as 0% in [16] (intraveneous administration, 1 mg/Kg); 0% in data set [16] (intraveneous administration, 3 mg/Kg); 0% in data set [16] (intraveneous administration, 10 mg/Kg); 0% in data set [16] (intraveneous administration, 100 mg/Kg); 0% in data set [16] (oral administration, 1 mg/Kg); 0% in data set [16] (oral administration, 3 mg/Kg). Moreover, the “Mortality (%)” value in data set [16] (oral administration, 10 mg/Kg) is 0%; in data set [16] (oral administration, 100 mg/Kg) it was 0%. For the same compound, the survival of mice entry in data set [16] (single dosage of 3–100 mg kg−1, both intravenous and oral) is “All eight mice survived”. Besides, the EC50 in [1] is 1600 nM; in [3], 610 nM; in data set [5], 510 nM; in [6] it was 1300 nM; in [7] it was 2200 nM; in [8] it was 810 nM. The EC50 is 1500 nM in data set [9], 150 nM in [11] (Table 3) and 250 nM in [12]. Also, the CC50 is 216000 nM in [4] (Table 3) and more than 200000 nM in data set [10] (Table 4, Hela cells).

With `C#C[C@@]1(CO)CC[C@H](n2cnc3c(N)nc(F)nc32)O1` [4′Edd2FA, 2′,3′-dideoxy-4′-C-ethynyl-2-fluoroadenosine], the values for the EC50 in data set [13], in data set [14] and in data set [15] were 8700 nM, 940 nM and 97000 nM, respectively.

For the compound `C[C@]1(CO)O[C@@H](n2cnc3c(N)ncnc32)C[C@@H]1O` [C00001 Ad, 4′-C-methyl-2′-deoxyadenosine], the CC50 in [4] (Table 2) and in [17] was 2600 nM throughout. Also, the EC50 in data set [11] (Table 2) and in data set [18] was 2600 nM each time. The “SI (CC50/EC50)” value in data set [18] is on record as 1.0.

`C[C@]1(CO)O[C@@H](n2ccc(N)nc2=O)C[C@@H]1O` [C00001 Cy, 4′-C-methyl-2′-deoxycytidine]: the EC50 in data set [1] was 200 nM; in data set [3], 6.2 nM; in data set [5], 3.3 nM; in data set [8] it was 5.8 nM; in [9], 740 nM; in data set [11] (Table 2), 15 nM. The EC50 was 72 nM in data set [18] and 7.1 nM in [12]. The CC50 was 1000 nM in [4] (Table 2); more than 200000 nM in [10] (Table 4, Hela cells); 130 nM in data set [17]. Moreover, in [18], the “SI (CC50/EC50)” value is recorded as 1.8.

Turning to `Cc1cn([C@H]2C[C@H](O)[C@@](C)(CO)O2)c(=O)[nH]c1=O` [C00001 Th, 4′-C-methylthymidine], the CC50 in data set [4] (Table 2) and in [17] was 104000 nM in each case. Also, the EC50 in data set [11] (Table 2) and in [18] was 7200 nM each time.

As to `C[C@@]1(CO)CC[C@H](n2cnc3c(N)ncnc32)O1` [C00003 Ad], the CC50 in data set [17] was 400000 nM. In [18], the “SI (CC50/EC50)” value is reported as 13 and the EC50 was 30000 nM.

As for `C[C@@]1(CO)CC[C@H](n2ccc(N)nc2=O)O1` [C00003 Cy], in [17], the CC50 was 27000 nM. Also, in data set [18], the “SI (CC50/EC50)” value was 1 and the EC50 was 27000 nM.

As for `Cc1cn([C@H]2CC[C@@](C)(CO)O2)c(=O)[nH]c1=O` [C00003 Th], the CC50 in data set [17] was more than 500000 nM. In data set [18], the “SI (CC50/EC50)” value is “∼1” and the EC50 was more than 500000 nM.

On to `Nc1ccn([C@@H]2CS[C@H](CO)O2)c(=O)n1` [Compound 3TC, 2′,3′-dideoxy-3′-thia-L-cytidine, reference compound], for which the EC50 in data set [1] was more than 100000 nM; in data set [5], 1100 nM; in data set [7] it was 9900 nM; in data set [8], 710 nM; in [13], 2800 nM; in [14] it was 1000 nM. For the same compound, the EC50 in data set [9] is more than 100000 nM; in [11] (Table 2), 100 nM; in data set [15], more than 100000 nM. Further, the half-maximal cytotoxic concentration (CC50) in data set [4] and in data set [10] was more than 100000 nM in each case.

With `Cc1cn([C@H]2C=C[C@@H](CO)O2)c(=O)[nH]c1=O` [d4T, 2′,3′-didehydro-3′-deoxythymidine, reference compound], the EC50 in data set [13] is 64000 nM; in [14], 7600 nM; in [15], 5600 nM; in data set [18] it was 4100 nM. In addition, the CC50 in [17] was more than 500000 nM. Moreover, the “SI (CC50/EC50)” value in data set [18] is reported as more than 120.

As to `Nc1ccn([C@H]2CC[C@@H](CO)O2)c(=O)n1` [ddC, reference compound], the EC50 is 2200 nM in data set [1]; 1500 nM in data set [3]; 5500 nM in data set [5]; 1300 nM in data set [7]; 200 nM in data set [8]; 3000 nM in data set [12]. Further, in data set [10], the CC50 is more than 100000 nM.

As for `O=c1[nH]cnc2c1ncn2[C@H]1CC[C@@H](CO)O1` [ddI, reference compound], the EC50 in data set [1] is 10100 nM; in data set [3], 19500 nM; in [5], 25000 nM; in [6], 3600 nM; in [7] it was 12200 nM; in data set [8], 3900 nM. For the same compound, the EC50 in [12] is 12700 nM. In addition, in [10], the CC50 is more than 100000 nM.
